Here are results for 86 compounds from ChEMBL document CHEMBL1157539, “Thousands of chemical starting points for antimalarial lead identification” (Nature, 2010).

The assay relates to Plasmodium falciparum. Nature of the assay: GSK_TCMDC: Inhibition of Plasmodium falciparum 3D7 in whole erythrocytes, using parasite LDH activity as an index of growth. It counts as functional, organism-based.

Turning to `O=C(c1cc(-c2ccco2)n[nH]1)N1CCN(S(=O)(=O)c2ccc(Br)cc2)CC1`, under “Plasmodium falciparum, 3D7”, the XC50 is 497 nM.
On the same count and under the same terms, then `Cc1csc2nc(-c3ccccn3)nc(Nc3ccc4ncsc4c3)c12`, with 1110 nM; and `CS(=O)(=O)Nc1cccc(-c2cnc3[nH]cc(-c4ccc(C(=O)O)c(F)c4)c3c2)c1`, with 834 nM.
`CC(CN1CCN(C)CC1)C(=O)Nc1cccc(-c2cccc(-c3nc4cc(F)ccc4[nH]3)c2)c1` (configuration not stated) displayed an XC50 (Plasmodium falciparum, 3D7) of 274 nM.
The same measure, in the same setting: with `Nc1ccc(-c2ccc(NC(=O)Nc3cc(C(F)(F)F)ccc3F)cc2)cn1` the figure was 657 nM.
Same read-out and setting: with `COc1cc2nc(N3CCC(C(N)=O)CC3)nc(NCc3ccccc3)c2cc1OC` the figure was 887 nM.
On the same count and under the same terms, then `Nc1ncnc2cc(-c3cccc(NC(=O)Nc4ccccc4)c3)sc12`, with 705 nM; and `Cc1cc(Nc2ccc(C(C)(C)C)cc2)c2[nH]ncc2n1`, with 1160 nM; and `COc1cccc(NC(=O)[C@H](C(C)C)n2c(=O)[nH]c3ccccc3c2=O)c1`, with 266 nM.
`Cc1cc(F)ccc1Oc1nc(Nc2ccc(N3CCOCC3)c(F)c2)nc2c1S(=O)(=O)CCC2` had an XC50 (Plasmodium falciparum, 3D7) of 462 nM.
`O=C(N[C@H]1CCN(CCc2ccc(O[C@H]3CCNC3)c(Br)c2)C1)c1ccc(Cl)c(Cl)c1` gave an XC50 (Plasmodium falciparum, 3D7) of 658 nM.
For `Cc1noc(C)c1-c1cccc(C(=O)NC2CCN(CCNC(=O)C(c3ccccc3)c3ccccc3)CC2)c1`, the XC50 (Plasmodium falciparum, 3D7) was 1220 nM.
`CCC(C)(CC)C(=O)n1ncc2c3c(N)nc(N)nc3ccc21` gave an XC50 (Plasmodium falciparum, 3D7) of 6 nM.
Still for that read-out and setting: with `CCOC(=O)c1c(C)n(C2CCCCC2)c2cc(Br)c(O)cc12` the figure was 815 nM; with `Cc1cc2nc(-c3ccc(/C=C/C(=O)NCCc4ccccc4)cc3)[nH]c2cc1C`, 779 nM.
As for `N#Cc1ccc2c(c1)CCN(CCC1CCC(NC(=O)c3cc4cccc(Cl)c4[nH]3)CC1)CC2` (configuration not stated), under “Plasmodium falciparum, 3D7”, the XC50 turned out to be 576 nM.
Turning to `CC[C@H](C)CNC(=O)c1cncc(-c2cccc(CN(C)C3CCN(C)CC3)c2)c1`, the XC50 (Plasmodium falciparum, 3D7) was found to be 785 nM.
Same read-out and setting: then `Cc1cc(=O)[nH]c(-n2nc(C)cc2NC(=O)C2(c3ccc(Cl)cc3)CCCC2)n1`, with 288 nM.
The same measure, in the same setting: then `Cc1ccccc1CNc1nccc(NCCC(=O)Nc2ccccc2)n1`, with 892 nM.
Turning to `COc1ccc2nccc([C@@H](O)CN3CCC(NC(=O)C(=Cc4ccc(Cl)cc4Cl)c4ccc(-c5ccccc5)cc4)CC3)c2c1`, for the setting “Plasmodium falciparum, 3D7”, the XC50 stood at 993 nM.
Consider `Cn1c(=O)n(C)c2cc(CNCCNc3ccnc4cc(Cl)ccc34)ccc21`, for which the XC50 (Plasmodium falciparum, 3D7) worked out at 140 nM.
The same measure, in the same setting: with `CC1=C(C(=O)Nc2ccc(Cl)cc2)C(c2ccncc2)n2nc(C(F)(F)F)nc2N1` (configuration not stated) the figure was 935 nM; with `O=C(Nc1ccccc1Cc1ccccc1)c1ccccc1C(F)(F)F`, 782 nM; with `CCCN(CC1CC1)c1nc(C)nc2c(-c3ccccc3)cc(C)cc12`, 1020 nM.
`CCCNC[C@@H](O)[C@H](Cc1ccccc1)NC(=O)c1cc2c3c(c1)c(CC)cn3CCS(=O)(=O)N2C` showed an XC50 (Plasmodium falciparum, 3D7) of 101 nM.
On the same count and under the same terms, then `CN(C)CCOc1cc(NC(=O)Nc2ccc(-c3ccncc3)c3ccccc23)ccc1I`, with 777 nM.
As for `Oc1c(Cl)cc(Nc2nccc(Nc3ccc(Oc4ccccc4)cc3)n2)cc1Cl`, the XC50 (Plasmodium falciparum, 3D7) was 786 nM.
Regarding `O=C(Nc1cccc(-c2ccc(-c3nc4cc(C(F)(F)F)ccc4[nH]3)s2)c1)c1ccncc1`, where the note is “Plasmodium falciparum, 3D7”, the XC50 was 681 nM.
The same measure, in the same setting: then `CCCCOC(=O)[C@H](CCC)NC(=O)c1ccc(NS(=O)(=O)c2ccc3nc(N)[nH]c(=O)c3c2)cc1`, with 198 nM; and `COc1ccc(C=CC(=O)Nc2ccc(N3CCCC3)cc2)cc1`, with 1280 nM; and `COc1ccc(NC(=O)[C@H](CC(C)C)Nc2cc(C)nc(NCC3CCCCC3)n2)cc1`, with 1100 nM.
Consider `N=c1n(Cc2ccccc2)c2ccccc2n1CC(O)c1ccc(Cl)cc1` (configuration not stated), for which the XC50 (Plasmodium falciparum, 3D7) was found to be 879 nM.
The same measure, in the same setting: then `O=C(N[C@@H](Cc1ccccc1)C(=O)NC1CCCc2ccccc21)c1ccc(O)c(-c2cccc(C(F)(F)F)c2)c1` (some centres not stated), with 1000 nM; and `Cn1nccc1C(=O)NCCNCc1ccc(-c2cccc(-c3nc4ccccc4[nH]3)c2)cc1`, with 137 nM.
Same read-out and setting: then `CC(C)CCn1c(Sc2ccc(C#N)c([N+](=O)[O-])c2)nnc1-c1ccc(N(C)C)cc1`, with 786 nM; and `Cc1cccc2nc(-c3cccc(-c4cccc(NC(=O)Nc5ccc(Cl)cc5)c4)c3)[nH]c12`, with 236 nM.
On the same count and under the same terms, then `O=C(c1cc(C(=O)Nc2ccc(F)cc2)c(=O)n(-c2ccc(F)cc2)c1)c1cc(Cl)ccc1O`, with 219 nM; and `Oc1ccc(CCNc2nc(NCCCOc3cc(CN4CCCCC4)ccc3F)nc(N3CCNCC3)n2)cc1`, with 1760 nM; and `COc1cc(NC(=O)c2cccc([N+](=O)[O-])c2)cc(S(=O)(=O)c2ccc(Cl)cc2)c1`, with 1130 nM.
In the case of `O=C(NCCN1CCCC1)N1CCCN(c2ncnc3cc(-c4ccc(F)cc4)sc23)CC1`, the XC50 (Plasmodium falciparum, 3D7) was 902 nM.
In the case of `Cc1cc(N2CCCN(C)CC2)nc(Nc2ccc(Cl)cc2)n1`, the XC50 (Plasmodium falciparum, 3D7) was determined as 795 nM.
Take `CN1CCN(c2ccnc3cc4c(cc23)N(C(=O)Nc2ccc(-c3ccncc3)c3ccccc23)CC4)CC1`: the XC50 (Plasmodium falciparum, 3D7) was 945 nM.
The same measure, in the same setting: then `CCOc1cccc(C(=O)Nc2ccc(-c3nc4ccccc4[nH]3)cc2)c1`, with 1010 nM.
For `O=C(Nc1ccc(C(F)(F)F)cc1)NC1CCN(c2ccnc3ccccc23)C1` (configuration not stated), under “Plasmodium falciparum, 3D7”, the XC50 was 87.5 nM.
The same measure, in the same setting: with `COc1ccc2[nH]c(C(=O)Nc3cccc(-c4ccc(CN(C)C)cc4)c3)cc2c1` the figure was 908 nM.
In the case of `COc1cccc(NC(=O)CSc2nc(-c3ccccc3Cl)ns2)c1`, the XC50 (Plasmodium falciparum, 3D7) was 814 nM.
As for `Cn1cnc(CCNC(=O)c2cccc(-c3cccc(-c4nc5cc(C(F)(F)F)ccc5[nH]4)c3)c2)c1`, the XC50 (Plasmodium falciparum, 3D7) amounted to 700 nM.
On the same count and under the same terms, with `CCNc1cc(C(=O)N[C@@H](Cc2cc(F)cc(F)c2)[C@H](O)CNCc2cccc(C(F)(F)F)c2)cc(N2CCCCS2(=O)=O)c1` the figure was 613 nM.
Still for that read-out and setting: with `O=C(Nc1cc(Cl)c(Cl)cc1NC(=O)c1cccc(-c2ccccc2)c1O)c1cccc(-c2ccccc2)c1O` the figure was 505 nM; with `O=C(N[C@@H](CC1CCCCC1)C(=O)NC1CCCc2ccccc21)c1ccc(O)c(-c2ccc(Cl)c(Cl)c2)c1` (some centres not stated), 195 nM.
Still for that read-out and setting: then `Cc1cc(C(=O)Nc2ccc3c(c2)CCN3C2CCN(Cc3cccc(F)c3F)C2)no1` (configuration not stated), with 583 nM; and `CN(C)CCC1CCCc2ccc(NC(=O)Nc3cccc(Cl)c3Cl)cc21` (configuration not stated), with 958 nM; and `CC(NC(=O)c1ccc(O)c(-c2ccc(Cl)c(Cl)c2)c1)C(=O)NCCN1CCCCC1` (configuration not stated), with 868 nM.
As for `COc1ccccc1NC(=O)Nc1cccc(-c2cccc(-c3nc4cccc(C)c4[nH]3)c2)c1`, the XC50 (Plasmodium falciparum, 3D7) amounted to 95.7 nM.
The same measure, in the same setting: with `O=[N+]([O-])c1cccc(CNC2CCN(Cc3ccc(C(F)(F)F)cc3)CC2)c1` the figure was 736 nM; with `CCC(C)(C)n1c(C)cc2c3c(N)nc(N)nc3ccc21`, 3.2 nM.
Still for that read-out and setting: with `O=c1nc(NCCCNCc2cc3c(Cl)cc(Cl)cc3[nH]2)[nH]c2ccccc12` the figure was 993 nM.
`CC(C)(C)OC(=O)NCc1ccc(Nc2nnc(-c3ccc(OCC(=O)NCc4ccc(C(C)(C)C)cc4)c([N+](=O)[O-])c3)o2)cc1` returned an XC50 (Plasmodium falciparum, 3D7) of 800 nM.
The compound `O=C(N[C@@H](Cc1ccccc1)C(=O)NCCN1CCCC1)c1ccc(O)c(-c2ccc(Cl)c(Cl)c2)c1` displayed an XC50 (Plasmodium falciparum, 3D7) of 800 nM.
On the same count and under the same terms, then `CC1CCCCN1Cc1cccc(-c2c[nH]c3nc(NC4CCCC4)ncc23)c1` (configuration not stated), with 1310 nM.
`NC1=NC(c2ccccc2)(c2cccc(O)c2)C(=O)N1CCCc1ccccc1` (configuration not stated) gave an XC50 of 836 nM. Also, the XC50 (Plasmodium falciparum, 3D7) is 1230 nM.
Turning to `O=S(=O)(Nc1cc2c(cc1OCCCN1CCCCC1)CCNCC2)c1ccc(-c2ccc(Cl)cc2)cc1`, where the note is “Plasmodium falciparum, 3D7”, the XC50 stood at 1000 nM.
Still for that read-out and setting: then `Cc1nc2ccccc2n1C1CC2CCC(C1)N2Cc1nccn1-c1ccccc1` (configuration not stated), with 366 nM.
In the case of `O=C(NCC(CCN1CCC(c2c[nH]c3ccccc23)CC1)c1ccccc1)Nc1ccc(Cl)c(Cl)c1` (configuration not stated), the XC50 (Plasmodium falciparum, 3D7) stood at 833 nM.
On the same count and under the same terms, with `O=C(Nc1ccc(-c2csc(-c3nc4ccccc4[nH]3)c2)cc1)Nc1ccsc1` the figure was 552 nM; with `COc1ccc(Nc2ncc3c(-c4cccc(NC(=O)c5ccccc5)c4)c[nH]c3n2)cc1OC`, 461 nM.
In turn, `Cc1nc2nc(N)nc(N)c2c(C)c1Cc1ccccc1Cl` had an XC50 (Plasmodium falciparum, 3D7) of 112 nM.
Same read-out and setting: with `COc1cc2c(cc1OC)CC(NCc1ccc(-c3ccc4nc[nH]c4c3)cc1)C2` the figure was 846 nM; with `CN(C)CCN(C)Cc1cccc(-c2cccc(NC(=O)c3cccc(C#N)c3)c2)c1`, 873 nM.
`CC(=O)Nc1cccc(C(=O)Nc2cccc(-c3ccc(-c4nc5cc(F)ccc5[nH]4)s3)c2)c1` gave an XC50 (Plasmodium falciparum, 3D7) of 896 nM.
On the same count and under the same terms, with `O=C(c1ccc(-c2ccc(-c3nc4ccccc4[nH]3)s2)cc1)N1CCCCC1CN1CCC(O)C1` (configuration not stated) the figure was 1050 nM; with `CC(=O)Nc1cccc(C(=O)Nc2ccc(-c3cccc(-c4nc5cccc(C)c5[nH]4)c3)cc2)c1`, 789 nM; with `CC(Oc1ccc(C(=O)c2ccc(F)cc2)cc1)C(=O)N1CCc2ccccc21` (configuration not stated), 413 nM.
Same read-out and setting: with `O=C(/C=C/C=C/c1ccc(Cl)c(Cl)c1)NCCCCCN1CCCC2CCCCC21` (configuration not stated) the figure was 954 nM.
For the compound `O=C(/C=C/c1ccc(Cl)c(Cl)c1)NCCCCCN1CCC(NC(=O)c2ccc3ccccc3c2)CC1`, the XC50 (Plasmodium falciparum, 3D7) was found to be 1020 nM.
Compound `C[C@@H](N/C(=N\c1ccccc1Cl)Nc1ccc(C#N)cc1O)c1ccc(Br)cc1` came in with an XC50 (Plasmodium falciparum, 3D7) of 753 nM.
Under “Plasmodium falciparum, 3D7”, `CC(C)(CN)c1cc(-c2ccc(Cl)c(O)c2)c(-c2ccncc2)o1` gave an XC50 of 1140 nM.
Still for that read-out and setting: with `CCOc1cc(C(=O)Nc2ccccc2N2CCN(S(C)(=O)=O)CC2)cc(OCC)c1OCC` the figure was 653 nM.
Still for that read-out and setting: then `NCCNC(=O)c1ccc(-c2cnc3[nH]cc(-c4ccc(C(N)=O)cc4)c3c2)cc1`, with 171 nM; and `CCC(CC)NCc1c(O)ccc2c(CNC(CC)CC)c(O)ccc12`, with 390 nM; and `CCc1ccc(Cc2cnc3nc(N)nc(N)c3c2C)cc1CC`, with 285 nM.
Same read-out and setting: with `Cc1cc2c(cc1C(F)(F)F)N(C(=O)Nc1ccc(C(=O)NC3CCN(Cc4ccccc4)C3)cc1)CC2` (configuration not stated) the figure was 776 nM; with `OCc1c(Cl)cc(Cl)cc1CNCCCNc1nc2ccccc2[nH]1`, 745 nM; with `CC(C)CN(C)Cc1ccc(-c2ccc(-c3nc4ccccc4[nH]3)s2)cc1`, 752 nM.
As to `CN(C)Cc1c(O)ccc2oc(Cc3ccccc3)cc12`, the XC50 (Plasmodium falciparum, 3D7) was 912 nM.
Same read-out and setting: with `C=CCc1cc(Cc2cnc(N)nc2N)c2ccc(C)nc2c1OC` the figure was 691 nM.
